Source: patent publication US10383977B2, “Cardiovascular prostheses” (CorMatrix Cardiovascular, Inc., priority 2011, dated 2019)

Tested on: CCR2
Assay: In vitro assay, TNF-α stimulated CCR2 expression in THP-1 cells (quantitative PCR)
Type: cell-based, human
Details: THP-1 cells treated with TNF-α
Source text: In the following study, the activity of cerivastatin and other statins, including simvastatin, lovastatin and atorvastatin, was similarly assessed using the human monocytic cell line THP-1. The THP-1 cells were similarly seeded by preparing a solution of THP-1 cells at 6×10^5 cells/ml and loading the solution of THP-1 cells onto a cell culture plate. The in vitro assay included six (6) treatment groups, including one (1) control group consisting of untreated THP-1 cells, one (1) positive control group consisting of THP-1 cells treated with tumor necrosis factor alpha (TNF-α) alone, four (4) treatment groups consisting of THP-1 cells treated with TNF-α and cerivastatin, TNF-α and simvastatin, TNF-α and lovastatin and TNF-α and atorvastatin. In this study, the THP-1 cells were treated with TNF-α to stimulate the production of CCR2. Each of the six (6) THP-1 cell samples were harvested and collected in a sealable vial and centrifuged to separate the liquid media from the THP-1 cells. The THP-1 cells were then collected and used for RNA extraction and quantitative PCR.

| Structure (SMILES) | expression of CCR2 |
| --- | --- |
| CC(C)c1c(C(=O)Nc2ccccc2)c(-c2ccccc2)c(-c2ccc(F)cc2)n1CC[C@@H](O)C[C@@H](O)CC(=O)O [atorvastatin] | did not, however, restrict CCR2 expression at levels comparable to cerivastatin |
| CC[C@H](C)C(=O)O[C@H]1C[C@@H](C)C=C2C=C[C@H](C)[C@H](CC[C@@H]3C[C@@H](O)CC(=O)O3)[C@H]21 [lovastatin] | did not, however, restrict CCR2 expression at levels comparable to cerivastatin |
